Laboratory results from patent publication US8088780B2, “5,7-disubstituted thiazolo[4,5-D]pyrimidines for the selective inhibition of chemokine receptors” (AstraZeneca AB, priority 2005, dated 2012).

Experiments:
[1] = biological target: T1, CX3CR1 (Homo sapiens, UniProt P49238); assay: [125I]-fractalkine competition receptor binding assay on membranes of cells expressing hCX3CR1; details: HEKS 293 hCX3CR1 membranes
T1 construct: expressed in transfected cells
T1 sequence (P49238 1-355): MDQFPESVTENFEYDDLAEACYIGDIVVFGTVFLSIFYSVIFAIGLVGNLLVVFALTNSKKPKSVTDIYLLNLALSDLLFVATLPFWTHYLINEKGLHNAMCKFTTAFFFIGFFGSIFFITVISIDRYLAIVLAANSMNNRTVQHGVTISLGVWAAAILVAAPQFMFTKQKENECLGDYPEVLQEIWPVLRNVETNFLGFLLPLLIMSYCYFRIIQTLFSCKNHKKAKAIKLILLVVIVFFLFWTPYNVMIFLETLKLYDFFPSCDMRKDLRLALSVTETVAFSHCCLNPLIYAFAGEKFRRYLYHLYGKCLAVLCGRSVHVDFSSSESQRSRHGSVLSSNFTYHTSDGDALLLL
Protocol: The complete human CX3CR1 cDNA (GenBank accession number U20350) was extracted from human brain mRNA (Superscript, Life Technologies) and ligated into pCR-Blunt II TOPO vector (InVitrogen). The insert corresponding hCX3CR1 was isolated and further subcloned into pcDNA3.1zeo. Plasmid DNA was prepared using Plasmid Midi Kit (Qiagen). […] A stable clone was generated utilizing zeocin (500 μg/mL) and hygromycin (100 μg/mL) selection. For further applications the cells were maintained in Dulbecco's modified Eagle's medium/Ham's nutrient mix F12 (DMEM/F12) containing pyridoxine and supplemented with 10% (v/v) fetal bovine serum, 2 mM L-glutamine, 100 U/ml penicillin and 100 mg/ml streptomycin, 250 μg/mL zeocin and 100 μg/mL hygromycin.
Cells are grown at 37° C. and 5% CO2 and harvested at 60-80% confluence in buffer containing 10 mM Tris-HCl pH 7.4, 5 mM EDTA, 0.1 mg/mL bacitracin. The cells are centrifuged at 300×g for 10 min and the pellet is resuspended in harvesting buffer (10 mM Tris-HCl, pH 7.4, 5 mM ethylenediaminetetra-acetic acid (EDTA) and 0.1 mg/mL bacitracin), pooled and homogenised using a Dounce homogeniser. […]
Ten concentrations (2 points/log unit) of the test compounds were pre-dissolved in DMSO and added to reach a final concentration of 1% (v/v) DMSO. […] Scintillation cocktail was added and radioactivity was determined in a Packard 2500TR liquid scintillation counter.

[2] = biological target: T2, CXCR2 (Homo sapiens, UniProt P25025); assay: [125I]-hIL-8 competition binding (SPA) on membranes of cells expressing human CXCR2; details: receptor binding, [125I]-hIL-8, human CXCR2 membranes
T2 construct: kept under geneticin/G418 selection
T2 sequence (P25025 1-360): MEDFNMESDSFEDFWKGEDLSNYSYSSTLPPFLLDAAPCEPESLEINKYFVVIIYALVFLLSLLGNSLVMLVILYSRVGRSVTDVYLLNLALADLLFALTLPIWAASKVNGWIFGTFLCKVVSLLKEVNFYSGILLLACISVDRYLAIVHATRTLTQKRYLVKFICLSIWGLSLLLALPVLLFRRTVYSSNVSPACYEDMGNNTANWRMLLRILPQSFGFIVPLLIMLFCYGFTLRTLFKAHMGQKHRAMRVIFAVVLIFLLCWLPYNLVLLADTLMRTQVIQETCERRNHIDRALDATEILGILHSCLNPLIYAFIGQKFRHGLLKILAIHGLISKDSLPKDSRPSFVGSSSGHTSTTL
Protocol: Cells expressing human CXCR2 obtained from AstraZeneca Charnwood are cultured in EMEM containing Glutamax and supplemented with 10% FBS (from PAA, Austria), 1% non-essential amino acids (NEAA), 100 U/mL penicillin and 100 μg/mL streptomycin (PEST) and 500 μg/mL geneticin/G418.
Cells are grown at 37° C. and 5% CO2 and harvested at 60-80% confluence in buffer containing 10 mM Tris-HCl pH 7.4, 5 mM EDTA, 0.1 mg/mL bacitracin. The cells are centrifuged at 300×g for 10 min and the pellet is resuspended in harvesting buffer (10 mM Tris-HCl, pH 7.4, 5 mM ethylenediaminetetra-acetic acid (EDTA) and 0.1 mg/mL bacitracin), pooled and homogenised using a Dounce homogeniser. The homogenate is centrifuged in 48000×g for 10 min and resuspended in harvesting buffer using Ultra-Turrax T8. Membrane aliquots are stored at −80° C.
The non-specific binding is determined in the presence of 500 nM unlabelled hIL-8. The agonist hIL-8 (a concentration-response curve from 3 pM to 30 nM), is used as reference compound at each test occasion. […] The binding reaction is started by addition of 140 μL membrane-SPA preparation, and the samples are incubated in dark at RT for 4 h.

| Ki [1] [nM] | Ki [2] [nM] | Compound |
| --- | --- | --- |
| 5.8 | 651 | CCC(Sc1nc(N[C@@H](CO)CC(C)C)c2sc(=O)[nH]c2n1)c1ccccc1 (stereo partly shown) |
| 54 | 79 | CC(C)C[C@H](CO)Nc1nc(SCc2ccccc2)nc2[nH]c(=O)sc12 [5-(benzylthio)-7-{[(1R)-1-(hydroxymethyl)-3-methylbutyl]amino}[1,3]thiazolo[4,5-d]pyrimidin-2(3H)-one] |
